Experiments:
[1] = tested on: Aβ25-35-induced Aβ1-42 accumulation in the rat hippocampus; experiment: Aβ1-42 content in hippocampus by ELISA after i.c.v. Aβ25-35 injection; assay type: in vivo, male Sprague Dawley rats; settings: 10 mg/kg i.v. once a day; after Aβ25-35 injection; vs Sc.Aβ/Veh group
Method: The compound efficacy was evaluated 7 days after the peptide administration, on: • the attenuation of the Aβ25-35-induced learning deficits (recognition long-term memory: novel object recognition); • the attenuation of the Aβ25-35-induced Aβ^1-42 accumulation in the rat hippocampus.
One administration procedure was examined: the compound 1 (10 mg/kg) administered intraveinously (i.v.) once a day during 9 days.
On day 10, all animals were sacrificed, the frontal cortex and hippocampi dissected out. One hippocampus was used for the ELISA analyses of Aβ1-42 content.
Samples were prepared from one hippocampus tissues of each rat per group and homogenized in an extraction buffer specific to the commercial ELISA assay kits.
After thawing, the hippocampus were homogenized in 50 mM Tris-150 mM NaCl buffer, pH 7.5, and sonicated for 20 s. After centrifugation (16,100 g for 15 min, 4° C.), supernatants were used for Aβ1-42 ELISA assay according to the manufacturer instructions. Absorbance was read at 450 nm and sample concentration was calculated using the standard curve. Results will be expressed in pg of Aβ1-42 per mg of tissue. […]
All values were expressed as mean±S.E.M. Statistical analyses were performed on the different conditions using one-way ANOVA (F value), followed by the Dunnett's post-hoc multiple comparison test. p<0.05 was considered as statistically significant.

[2] = tested on: recombinant activated JNK; experiment: in vitro kinase assay JNK (ADP-Glo); assay type: biochemical; settings: 100 μM ATP
Method: (§1) Purified recombinant activated JNK (10 nM) (ProQinase) was preincubated 10 minutes at 30° C. with the compound of interest at concentrations between 1 and 100 μM in duplicate in a final volume of 30 μl of kinase buffer (Hepes 60 mM pH 7.5, MgCl2 3 mM, MnCl2 3 mM, sodium orthovanadate 3 μM, DTT 1.2 mM). After preincubation, peptide substrate (SignalChem #P03-58) and ATP were added to a final concentration of 10 μM and 100 μM respectively, and then incubated 40 minutes at 30° C. for the kinase reaction. Phosphorylation was analyzed with ADP-Glo™ (Promega #V9101) and emitted luminescence was measured with BMG Fluostar microplate reader.

[3] = target: T1, recombinant activated p38alpha (Homo sapiens, UniProt Q16539); experiment: in vitro kinase assay p38 (ADP-Glo); assay type: biochemical; settings: 100 μM ATP
T1 construct: purchased ProQinase
T1 sequence (Q16539 whole entry): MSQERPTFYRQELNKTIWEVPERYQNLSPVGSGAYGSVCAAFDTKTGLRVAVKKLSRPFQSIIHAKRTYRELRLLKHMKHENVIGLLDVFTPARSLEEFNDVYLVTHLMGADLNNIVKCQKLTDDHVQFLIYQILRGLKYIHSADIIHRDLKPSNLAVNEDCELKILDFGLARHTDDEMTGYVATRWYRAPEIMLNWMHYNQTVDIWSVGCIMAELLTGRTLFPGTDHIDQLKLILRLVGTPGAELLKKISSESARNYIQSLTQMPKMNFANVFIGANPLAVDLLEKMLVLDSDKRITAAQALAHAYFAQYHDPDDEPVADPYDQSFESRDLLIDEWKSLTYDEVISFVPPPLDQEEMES
Method: as §1, with “p38alpha” for “JNK”, “nM)(ProQinase)” for “nM) (ProQinase)”, “analysed” for “analyzed”

% of inhibition at 1 μM, JNK ([2]; 1 μM compound): 49%
% of inhibition at 10 μM, JNK ([2]; 10 μM compound): 98%
inhibition at 1 µM ([3]; 1 μM compound): 37%
inhibition at 10 µM ([3]; 10 μM compound): 99%
SMILES: CCCOc1ccc(Nc2nc3nonc3nc2N2CCC(Oc3ccc(Cl)cc3)CC2)cc1 [Comp 1]
Aβ1-42 level in the hippocampus [1]: decreased the Aβ1-42 level increase

Reference: patent publication US9908896B2, “P38 and JNK MAPK inhibitors for the treatment and prophylaxis of degenerative diseases of the nervous system” (ALLINKY BIOPHARMA, priority 2014, dated 2018)
